# Data published in US10597388B2, “Pyridazinone herbicides” (FMC CORPORATION, priority 2014, dated 2020).
# How the values were obtained:
# Test in all cases: Test D controlled growth environment herbicide test, pre- and postemergence
# Type in all cases: in vivo
# [1] = system: speedwell (bird's-eye speedwell, Veronica persica)
# Summary of the method: (§1)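 Pre-emergence: seeds sown in silt loam soil were sprayed with compound in a non-phytotoxic solvent mix containing surfactant. Post-emergence: plants at 2 to 18 cm (1- to 4-leaf stage) in peat moss/vermiculite medium got the same formulation. Visual 0–100 rating versus controls after 14 to 21 d.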
# [2] = system: canarygrass (Phalaris minor)
# Summary of the method: as §1
# [3] = system: lambsquarters (Chenopodium album)
# Summary of the method: as §1
# [4] = system: barley, winter (winter barley, Hordeum vulgare)
# Summary of the method: as §1
# [5] = system: bromegrass, downy (downy bromegrass, Bromus tectorum)
# Summary of the method: as §1
# [6] = system: bluegrass (annual bluegrass, Poa annua)
# Summary of the method: as §1
# [7] = system: galium (catchweed bedstraw, Galium aparine)
# Summary of the method: as §1
# [8] = system: mustard, wild (wild mustard, Sinapis arvensis)
# Summary of the method: as §1
# [9] = system: chamomile (scentless chamomile, Matricaria inodora)
# Summary of the method: as §1
# [10] = system: barley, spring (spring barley, Hordeum vulgare)
# Summary of the method: as §1
# [11] = system: oat, wild (wild oat, Avena fatua)
# Summary of the method: as §1
# [12] = system: foxtail, green (green foxtail, Setaria viridis)
# Summary of the method: as §1
# kochia (Kochia scoparia) = system: kochia (Kochia scoparia)
# Summary of the method: as §1
# [13] = Postemergence, 31 g ai/ha, scale 0 to 100 (0 no effect, 100 complete control)
# [14] = Postemergence, 125 g ai/ha, visual rating on scale 0 (no effect) to 100 (complete control), 14 to 21 d
# [15] = Postemergence, 250 g ai/ha, scale 0 to 100 (0 no effect, 100 complete control)
# [16] = Preemergence, 62 g ai/ha, scale 0 to 100 (0 no effect, 100 complete control)
# [17] = Preemergence, 125 g ai/ha, scale 0 to 100 (0 no effect, 100 complete control)
# [18] = Preemergence, 250 g ai/ha, scale 0 to 100 (0 no effect, 100 complete control)
# [19] = postemergence, 62 g ai/ha, scale 0 to 100, 0 no effect, 100 complete control
compound,measurement,setting,value
COc1nn(C)c(=O)c(-c2c(C)ccc3ccccc23)c1O [Compound 54],Speedwell plant response rating,[1]; [13],75
same,"Plant response rating, Speedwell",[1]; [14],100
same,"Plant response rating, Speedwell",[1]; [15],100
same,"Plant response rating (scale of 0 to 100), Speedwell","[1]; Preemergence, 31 g ai/ha",100
same,"Plant response rating, Speedwell",[1]; [16],95
same,"Plant response rating, Speedwell",[1]; [17],100
same,"Plant response rating, Speedwell",[1]; [18],100
same,"Plant response rating, Speedwell",[1]; [19],100
same,Canarygrass plant response rating,[2]; [13],35
same,"Plant response rating, Canarygrass",[2]; [14],65
same,"Plant response rating, Canarygrass",[2]; [15],75
same,"Plant response rating (scale of 0 to 100), Canarygrass","[2]; Preemergence, 31 g ai/ha",15
same,"Plant response rating, Canarygrass",[2]; [16],55
same,"Plant response rating, Canarygrass",[2]; [17],80
same,"Plant response rating, Canarygrass",[2]; [18],90
same,"Plant response rating, Canarygrass",[2]; [19],55
same,Lambsquarters plant response rating,[3]; [13],95
same,"Plant response rating, Lambsquarters",[3]; [14],95
same,"Plant response rating, Lambsquarters",[3]; [15],100
same,"Plant response rating (scale of 0 to 100), Lambsquarters","[3]; Preemergence, 31 g ai/ha",65
same,"Plant response rating, Lambsquarters",[3]; [16],65
same,"Plant response rating, Lambsquarters",[3]; [17],95
same,"Plant response rating, Lambsquarters",[3]; [18],95
same,"Plant response rating, Lambsquarters",[3]; [19],95
same,"Barley, Winter plant response rating",[4]; [13],0
same,"Plant response rating, Barley, Winter",[4]; [14],5
same,"Plant response rating, Barley, Winter",[4]; [15],30
same,"Plant response rating (scale of 0 to 100), Barley, Winter","[4]; Preemergence, 31 g ai/ha",0
same,"Plant response rating, Barley, Winter",[4]; [16],0
same,"Plant response rating, Barley, Winter",[4]; [17],0
same,"Plant response rating, Barley, Winter",[4]; [18],0
same,"Plant response rating, Barley, Winter",[4]; [19],0
same,"Bromegrass, Downy plant response rating",[5]; [13],10
same,"Plant response rating, Bromegrass, Downy",[5]; [14],55
same,"Plant response rating, Bromegrass, Downy",[5]; [15],75
same,"Plant response rating (scale of 0 to 100), Bromegrass, Downy","[5]; Preemergence, 31 g ai/ha",0
same,"Plant response rating, Bromegrass, Downy",[5]; [16],15
same,"Plant response rating, Bromegrass, Downy",[5]; [17],15
same,"Plant response rating, Bromegrass, Downy",[5]; [18],40
same,"Plant response rating, Bromegrass, Downy",[5]; [19],55
same,Bluegrass plant response rating,[6]; [13],10
same,"Plant response rating, Bluegrass",[6]; [14],25
same,"Plant response rating, Bluegrass",[6]; [15],35
same,"Plant response rating (scale of 0 to 100), Bluegrass","[6]; Preemergence, 31 g ai/ha",0
same,"Plant response rating, Bluegrass",[6]; [16],10
same,"Plant response rating, Bluegrass",[6]; [17],15
same,"Plant response rating, Bluegrass",[6]; [18],25
same,"Plant response rating, Bluegrass",[6]; [19],15
same,Galium plant response rating,[7]; [13],100
same,"Plant response rating, Galium",[7]; [14],100
same,"Plant response rating, Galium",[7]; [15],100
same,"Plant response rating (scale of 0 to 100), Galium","[7]; Preemergence, 31 g ai/ha",0
same,"Plant response rating, Galium",[7]; [16],45
same,"Plant response rating, Galium",[7]; [17],85
same,"Plant response rating, Galium",[7]; [18],100
same,"Plant response rating, Galium",[7]; [19],100
same,"Mustard, Wild plant response rating",[8]; [13],100
same,"Plant response rating, Mustard, Wild",[8]; [14],100
same,"Plant response rating, Mustard, Wild",[8]; [15],100
same,"Plant response rating (scale of 0 to 100), Mustard, Wild","[8]; Preemergence, 31 g ai/ha",50
same,"Plant response rating, Mustard, Wild",[8]; [16],100
same,"Plant response rating, Mustard, Wild",[8]; [17],100
same,"Plant response rating, Mustard, Wild",[8]; [18],100
same,"Plant response rating, Mustard, Wild",[8]; [19],100
same,Chamomile plant response rating,[9]; [13],90
same,"Plant response rating, Chamomile",[9]; [14],100
same,"Plant response rating, Chamomile",[9]; [15],100
same,"Plant response rating, Chamomile",[9]; [19],100
same,"Barley, Spring plant response rating",[10]; [13],0
same,"Plant response rating, Barley, Spring",[10]; [14],0
same,"Plant response rating, Barley, Spring",[10]; [15],10
same,"Plant response rating (scale of 0 to 100), Barley, Spring","[10]; Preemergence, 31 g ai/ha",0
same,"Plant response rating, Barley, Spring",[10]; [16],0
same,"Plant response rating, Barley, Spring",[10]; [17],0
same,"Plant response rating, Barley, Spring",[10]; [18],5
same,"Plant response rating, Barley, Spring",[10]; [19],0
same,"Oat, Wild plant response rating",[11]; [13],75
same,"Plant response rating, Oat, Wild",[11]; [14],90
same,"Plant response rating, Oat, Wild",[11]; [15],90
same,"Plant response rating (scale of 0 to 100), Oat, Wild","[11]; Preemergence, 31 g ai/ha",75
same,"Plant response rating, Oat, Wild",[11]; [16],75
same,"Plant response rating, Oat, Wild",[11]; [17],85
same,"Plant response rating, Oat, Wild",[11]; [18],95
same,"Plant response rating, Oat, Wild",[11]; [19],85
same,"Foxtail, Green plant response rating",[12]; [13],55
same,"Plant response rating, Foxtail, Green",[12]; [14],70
same,"Plant response rating, Foxtail, Green",[12]; [15],80
same,"Plant response rating (scale of 0 to 100), Foxtail, Green","[12]; Preemergence, 31 g ai/ha",50
same,"Plant response rating, Foxtail, Green",[12]; [16],60
same,"Plant response rating, Foxtail, Green",[12]; [17],65
same,"Plant response rating, Foxtail, Green",[12]; [18],100
same,"Plant response rating, Foxtail, Green",[12]; [19],65
same,Kochia plant response rating,kochia (Kochia scoparia); [13],15
same,"Plant response rating, Kochia",kochia (Kochia scoparia); [14],100
same,"Plant response rating, Kochia",kochia (Kochia scoparia); [15],100
same,"Plant response rating (scale of 0 to 100), Kochia","kochia (Kochia scoparia); Preemergence, 31 g ai/ha",25
same,"Plant response rating, Kochia",kochia (Kochia scoparia); [16],60
same,"Plant response rating, Kochia",kochia (Kochia scoparia); [17],30
same,"Plant response rating, Kochia",kochia (Kochia scoparia); [18],45
same,"Plant response rating, Kochia",kochia (Kochia scoparia); [19],95
